The results in this text go back to publication PMC9096233, “Identification of an Au(I) N-Heterocyclic Carbene Compound as a Bactericidal Agent Against Pseudomonas aeruginosa” (Frontiers in Chemistry, 2022).

Read-outs that look alike come from different tables or passages of the source.

The test system of experiment [1] is Burkholderia cepacia J2315. The experiment in a line: MIC by standard broth dilution. Type of experiment: cell-based. The settings on record: Table S1. The protocol:
(§1) Pseudomonas aeruginosa strain PAO1 (P. aeruginosa) was grown in M9 minimal medium (1.0 g/L NH4Cl, 0.5 g/L NaCl, 6.0 g/L Na2HPO4, 3.0 g/L KH2PO4) supplemented with 1.0 mM MgSO4, 1.0 mM ZnSO4, 0.2 mM CaCl2, 0.4% (w/v) glucose and 0.2% (w/v) casein hydrolysate. Gram-negative Escherichia coli strain K-12 (E. coli) and Burkholderia cepacia J2315 (B. cepacia) were cultured in Luria-Bertani (LB) medium (5 g/L yeast extract, 10 g/L tryptone, 10 g/L sodium chloride). The Gram-positive Staphylococcus aureus strain Newman (S. aureus) was grown in Tryptic Soy Broth (TSB) medium (17 g/L Tryptone, 3 g/L Phytone, 5 g/L sodium chloride, 2.5 g/L dipotassium phosphate and glucose 2.5 g/L).
(§2) The minimal inhibitory concentration (MIC) values of the gallium compounds were determined using a standard broth dilution method as described previously ([Wiegand et al., 2008]). In brief, the compounds were two-fold serially diluted to concentrations from 400 to 1.56 μM. Approximately 50 μL of the compound solution was added to a 96-well microtiter plate and mixed with 50 μL of bacteria culture in log phase (10^6 CFU/ml). The bacterial culture was further incubated at 37°C for 22–24 h. The OD600 values for each well was recorded on a microplate reader. The MICs value was defined as the lowest compound concentration that inhibited 95% of the bacterial growth.
Background: Broth dilution looks for growth in wells or tubes with falling amounts of substance.

Experiment [2] has as its system Pseudomonas aeruginosa strain PAO1. As to the kind of experiment: MIC by standard broth dilution. Type of experiment: cell-based. Conditions: read-out: MIC. How it is done:
as §1, §2

Experiment [3] deals with Staphylococcus aureus Newman. As to the kind of experiment: MIC by standard broth dilution. Type of experiment: cell-based. The settings on record: Table S1. The protocol: as §1, §2
Experiment [4] concerns Escherichia coli MG16552. The experiment in a line: MIC by standard broth dilution. The settings on record: Table S1. In kind it is cell-based. The protocol:
as §1, §2

The test system of experiment [5] is lung carcinoma A549 cell. As to the kind of experiment: MTT cytotoxicity assay. In kind it is cell-based, Human. Conditions: 48 h. The protocol:
The cytotoxicity of gold compounds to mammalian cells was measured using the 3-(4, 5-dimethylthiazol-2-yl)-2, 5-diphenyltetrazolium bromide (MTT) assay. Human hepatocyte L-O2 cell, and lung carcinoma A549 cell were cultured in Corning 96 well microplates (10^4 cells per well) at 37°C for 18 h. Then the cells were incubated with gradient concentrations of gold compounds at 37°C for another 48 h. After the treatment, cell culture media were removed and the plates were wash with PBS for three times. And 90 μL fresh media and 10 μL 5 mg/ml MTT solution were added to each well and further incubated at 37°C for 4 h. Subsequently, the media were removed from the wells and 150 μL DMSO was added into each well to dissolve the formazan crystals. The absorbance at 490 nm of each well was measured with a micro-plate reader. The experiments were carried out in triplicates.

In experiment [6] the test system is pyoverdine. As to the kind of experiment: Quantification of secreted pyoverdine. In kind it is cell-based, Pseudomonas aeruginosa. The settings on record: 15 μM; 24 h. How it is done:
To quantify the secreted virulence factors, overnight P. aeruginosa PAO1 was diluted in fresh M9 medium and cultured to a final OD600 value of 0.15. Then Au1 or auranofin were added into culture with indicated concentrations. After 24 h incubation at 37°C, the bacterial supernatants were collected by centrifugation at 4,000 g for 10 min at 4°C and filtered using a 0.22 μm syringe filter (Millipore). The secreted virulence factors in the supernatant were quantified by the methods described below.

In experiment [7] the test system is P. aeruginosa. As to the kind of experiment: Bacterial growth curves. Type of experiment: cell-based, Pseudomonas aeruginosa. Conditions: growth curves. The protocol: as §1
Experiment [8] has as its system P. aeruginosa. As to the kind of experiment: Drug resistance development assay (serial passage). Type of experiment: cell-based, Pseudomonas aeruginosa. The settings on record: serial passage at sub-lethal concentrations over 14 days. How it is done:
Development of resistance to the Au1 compound and the antibiotics (ciprofloxacin and tobramycin) were assessed as described by [Habets and Brockhurst (2012)]. The MIC assay was performed on the first day as described above. […] Thereafter, a new passage MIC measurement assay was prepared using diluted bacterial cells grown at 0.5-fold MIC suspension. This was repeated for 14 passages and the MIC values for Au1, ciprofloxacin and tobramycin were recorded for each passage.

Experiment [9] deals with P. aeruginosa. The experiment in a line: Checkerboard assay with antibiotics. Type of experiment: cell-based, Pseudomonas aeruginosa. The settings on record: with tobramycin and colistin. From the text: Figure S4. Heat plots of checkerboard assays for gold(I) compounds in combination with different antibiotics against P. aeruginosa.

NHC^Me-Au-Cl [Au1]: the minimal inhibitory concentration (MIC) in experiment [1] is recorded as 25 µM; in experiment [2] (P. aeruginosa PAO1, lowest concentration inhibiting 95% of growth, 22–24 h, Table 1), 25 µM; in experiment [2] (Pseudomonas aeruginosa PAO1, Table S1) it was 25 µM; in [3], <1.56 µM; in experiment [4], <1.56 µM. The same substance displayed an IC50 in [5] of 32.8 ± 1.6 µM. Moreover, the “decrease of pyoverdine siderophore secretion” value in [6] was determined as 50%. In addition, the “concentration at which P. aeruginosa growth was completely inhibited” value in experiment [7] is 20 µM. In addition, in [8], the development of resistance entry was “not observed”. In addition, the “synergistic effects with antibiotics” value in [9] is given as “synergistic effects”.

One may read the MIC as the lowest concentration that inhibits growth of the organism. For orientation: IC50 means the concentration that gives 50% inhibition.
